Test results from US20100298141A1, “SUBSTITUTED PYRIDINE N-OXIDE HERBICIDES” (E. I. DU PONT DE NEMOURS AND COMPANY, priority 2007, published 2010).

Tests used:
Experiment in all cases: Test F preemergence test
Surinam grass = assay type: in vivo, Brachiaria decumbens; details: scale 0 to 100
Method in brief: (§1)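 Greenhouse screen: test chemical in surfactant-containing non-phytotoxic solvent applied preemergence to sown seeds or postemergence to sugarcane plants; after 14 to 21 days each species scored visually versus controls.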

large crabgrass = assay type: in vivo, Digitaria sanguinalis; details: scale 0 to 100
Method in brief: as §1

kochia = assay type: in vivo, Kochia scoparia; details: scale 0 to 100
Method in brief: as §1

mustard = assay type: in vivo, Brassica nigra; details: scale 0 to 100
Method in brief: as §1

guineagrass = assay type: in vivo, Panicum maximum; details: scale 0 to 100
Method in brief: as §1

dallisgrass = assay type: in vivo, Paspalum dilatatum; details: scale 0 to 100
Method in brief: as §1

barnyardgrass = assay type: in vivo, Echinochloa crus-galli
Method in brief: as §1

southern sandbur = assay type: in vivo, Cenchrus echinatus; details: scale 0 to 100
Method in brief: as §1

Italian ryegrass = assay type: in vivo, Lolium multiflorum; details: scale 0 to 100
Method in brief: as §1

common purslane = assay type: in vivo, Portulaca oleracea; details: scale 0 to 100
Method in brief: as §1

common groundsel = assay type: in vivo, Senecio vulgaris; details: scale 0 to 100
Method in brief: as §1

Virginia dayflower = assay type: in vivo, Commelina virginica; details: scale 0 to 100
Excerpt: Seeds of plant species selected from bermudagrass (Cynodon dactylon), Surinam grass (Brachiaria decumbens), large crabgrass (Digitaria sanguinalis), green foxtail (Setaria viridis), goosegrass (Eleusine indica), johnsongrass (Sorghum halepense), kochia (Kochia scoparia), pitted morningglory (Ipomoea lacunosa), purple nutsedge (Cyperus rotundus), common ragweed (Ambrosia elation), mustard (Brassica nigra), guineagrass (Panicum maximum), […] (Paspalum dilatatum), barnyardgrass (Echinochloa crus-galli), southern sandbur (Cenchrus echinatus), common sowthistle (Sonchus oleraceous), prickly […] spinosa), Italian ryegrass (Lolium multiflorum), common purslane (Portulaca oleracea), broadleaf signalgrass (Brachiaria platyphylla), common groundsel (Senecio vulgaris), common chickweed (Stellaria media), Virginia dayflower (Commelina virginica), annual bluegrass (Poa annua), naked crabgrass (Digitaria nuda), […] cochinchinensis), quackgrass (Elytrigia repens), Canada horseweed (Conyza canadensis), field bindweed (Convolvulus arvensis), […] (Bidens bipinnata), common mallow (Malva sylvestris), Russian thistle (Salsola kali), and sugarcane (Saccharum officinarum) were planted and treated preemergence with test chemicals formulated in a non-phytotoxic solvent mixture which included a surfactant. At a different time, sugarcane was treated with postemergence applications of some of the test chemicals formulated in the same manner. Plants were approximately 3- to 4-leaf stage for the postemergence treatments. Treated plants and controls were maintained in a greenhouse for 14 to 21 days, after which time all species were compared to controls and visually evaluated. […] A dash (-) response means no test result.

annual bluegrass = assay type: in vivo, Poa annua; details: scale 0 to 100
Method in brief: as §1

quackgrass = assay type: in vivo, Elytrigia repens; details: scale 0 to 100
Method in brief: as §1

field bindweed = assay type: in vivo, Convolvulus arvensis; details: scale 0 to 100
Method in brief: as §1

common mallow = assay type: in vivo, Malva sylvestris; details: scale 0 to 100
Method in brief: as §1

In the case of CCn1nc(C(F)(F)F)c(C[S+]([O-])c2cc(C)cc[n+]2[O-])c1OCC(F)(F)F (racemic) [Compound 66], the “Plant response rating, Surinam Grass” value (Surinam grass; 16 g ai/ha, preemergence) is reported as 0, the “Surinam Grass plant response rating” value (Surinam grass; 125 g ai/ha, preemergence) is reported as 100 and the “Plant response rating, Surinam Grass” value (Surinam grass; Preemergence, 62 g ai/ha) is reported as 98. The “Plant response rating, Surinam Grass” value (Surinam grass; Preemergence, 31 g ai/ha) was 90, the “Plant response rating, Crabgrass, Large” value (large crabgrass; 16 g ai/ha, preemergence) was 0 and the “Crabgrass, Large plant response rating” value (large crabgrass; 62 g ai/ha, Preemergence) was 80. For the same compound, the “Crabgrass, Large plant response rating” value (large crabgrass; 125 g ai/ha, preemergence) was 95, the “Plant response rating, Crabgrass, Large” value (large crabgrass; Preemergence, 31 g ai/ha) was 70 and the “Plant response rating, Kochia” value (kochia; 16 g ai/ha, preemergence) was 0. For the same compound, the “Kochia plant response rating” value (kochia; 62 g ai/ha, Preemergence) was 15, the “Kochia plant response rating” value (kochia; 125 g ai/ha, preemergence) was 90 and the “Plant response rating, Kochia” value (kochia; Preemergence, 31 g ai/ha) was 0. For the same compound, the “Plant response rating, Black Mustard” value (mustard; 16 g ai/ha, preemergence) was 50, the “Black Mustard plant response rating” value (mustard; 62 g ai/ha, Preemergence) was 100 and the “Black Mustard plant response rating” value (mustard; 125 g ai/ha, preemergence) was 100. The “Plant response rating, Black Mustard” value (mustard; Preemergence, 31 g ai/ha) was 65, the “Plant response rating, Guineagrass” value (guineagrass; 16 g ai/ha, preemergence) was 20 and the “Guineagrass plant response rating” value (guineagrass; 62 g ai/ha, Preemergence) was 100. The “Guineagrass plant response rating” value (guineagrass; 125 g ai/ha, preemergence) was 100, the “Plant response rating, Guineagrass” value (guineagrass; Preemergence, 31 g ai/ha) was 80 and the “Plant response rating, Dallisgrass” value (dallisgrass; 16 g ai/ha, preemergence) was 0. For the same compound, the “Dallisgrass plant response rating” value (dallisgrass; 62 g ai/ha, Preemergence) was 95, the “Dallisgrass plant response rating” value (dallisgrass; 125 g ai/ha, preemergence) was 100 and the “Plant response rating, Dallisgrass” value (dallisgrass; Preemergence, 31 g ai/ha) was 65. For the same compound, the “Plant response rating, Barnyardgrass” value (barnyardgrass; 16 g ai/ha, preemergence, scale 0 to 100 (0 no effect, 100 complete control)) was 30, the “Barnyardgrass plant response rating” value (barnyardgrass; 62 g ai/ha, Preemergence, scale 0 to 100) was 100 and the “Barnyardgrass plant response rating” value (barnyardgrass; 125 g ai/ha, preemergence, scale 0 to 100) was 100. For the same compound, the “Plant response rating, Barnyardgrass” value (barnyardgrass; Preemergence, 31 g ai/ha, scale 0 to 100) was 75, the “Plant response rating, Sandbur” value (southern sandbur; 16 g ai/ha, preemergence) was 15 and the “Sandbur plant response rating” value (southern sandbur; 125 g ai/ha, preemergence) was 100. The “Plant response rating, Sandbur” value (southern sandbur; Preemergence, 62 g ai/ha) was 100, the “Plant response rating, Sandbur” value (southern sandbur; Preemergence, 31 g ai/ha) was 70 and the “Plant response rating, Ryegrass, Italian” value (Italian ryegrass; 16 g ai/ha, preemergence) was 0. For the same compound, the “Ryegrass, Italian plant response rating” value (Italian ryegrass; 125 g ai/ha, preemergence) was 70, the “Plant response rating, Ryegrass, Italian” value (Italian ryegrass; Preemergence, 62 g ai/ha) was 60 and the “Plant response rating, Ryegrass, Italian” value (Italian ryegrass; Preemergence, 31 g ai/ha) was 50. For the same compound, the “Plant response rating, Purslane” value (common purslane; 16 g ai/ha, preemergence) was 0, the “Purslane plant response rating” value (common purslane; 62 g ai/ha, Preemergence) was 50 and the “Purslane plant response rating” value (common purslane; 125 g ai/ha, preemergence) was 60. The “Plant response rating, Purslane” value (common purslane; Preemergence, 31 g ai/ha) was 0, the “Groundsel plant response rating” value (common groundsel; 62 g ai/ha, Preemergence) was 80 and the “Groundsel plant response rating” value (common groundsel; 125 g ai/ha, preemergence) was 100. For the same compound, the “Plant response rating, Groundsel” value (common groundsel; Preemergence, 31 g ai/ha) was 20, the “Plant response rating, Dayflower” value (Virginia dayflower; 16 g ai/ha, preemergence) was 0 and the “Plant response rating, Dayflower” value (Virginia dayflower; Preemergence, 31 g ai/ha) was 0. For the same compound, the “Plant response rating, Bluegrass” value (annual bluegrass; 16 g ai/ha, preemergence) was 0, the “Bluegrass plant response rating” value (annual bluegrass; 62 g ai/ha, Preemergence) was 70 and the “Bluegrass plant response rating” value (annual bluegrass; 125 g ai/ha, preemergence) was 80. The “Plant response rating, Bluegrass” value (annual bluegrass; Preemergence, 31 g ai/ha) was 20, the “Plant response rating, Quackgrass” value (quackgrass; 16 g ai/ha, preemergence) was 70 and the “Quackgrass plant response rating” value (quackgrass; 62 g ai/ha, Preemergence) was 85. For the same compound, the “Quackgrass plant response rating” value (quackgrass; 125 g ai/ha, preemergence) was 100, the “Plant response rating, Quackgrass” value (quackgrass; Preemergence, 31 g ai/ha) was 75 and the “Plant response rating, Field Bindweed” value (field bindweed; 16 g ai/ha, preemergence) was 30. For the same compound, the “Field Bindweed plant response rating” value (field bindweed; 62 g ai/ha, Preemergence) was 40, the “Field Bindweed plant response rating” value (field bindweed; 125 g ai/ha, preemergence) was 75 and the “Plant response rating, Field Bindweed” value (field bindweed; Preemergence, 31 g ai/ha) was 40. The “Plant response rating, Mallow” value (common mallow; 16 g ai/ha, preemergence) was 0, the “Mallow plant response rating” value (common mallow; 62 g ai/ha, Preemergence) was 80 and the “Mallow plant response rating” value (common mallow; 125 g ai/ha, preemergence) was 100. For the same compound, the “Plant response rating, Mallow” value (common mallow; Preemergence, 31 g ai/ha) was 70.
